US20230276804A1, “A PESTICIDALLY ACTIVE MIXTURE COMPRISING PYRAZOLOPYRIDINE ANTHRANILAMIDE COMPOUND, OXIDES OR SALTS THEREOF” (priority 2020, published 2023)
“And” between values parts separate entries of the source, which are not always exact repeats. Identical values can stand only once.

Legend:
Format in all cases: in vivo
[1] = test system: Alternaria solani; assay: Preventive glasshouse test against Alternaria solani in tomato (Example G); conditions: single compound
Method: (§1) The single compounds or respective compound combinations were dissolved in 2% dimethyl sulfoxide/acetone and then mixed with water containing emulsifier to a calibrated spray volume of 50 mL. The test solutions were poured into spray bottles for further applications.
(§2) To test the preventive activity, healthy young tomato plants, raised in the greenhouse, were sprayed with the active compound preparation at the stated application rates inside the spray cabinets using hollow cone nozzles. One day after treatment, the plants were inoculated with a spore suspension containing 0.24×10^6 Alternaria solani inoculum and 2% Malt. The inoculated plants were then kept in a greenhouse chamber at a temperature of 22-24° C. and 90-95% relative humidity for disease expression.
(§3) A visual assessment of the performance of the single compounds or compound combinations was carried out by rating the disease severity (0-100% scale) on treated plants 3, 7, 10 and 15 days after application. Efficacy (% control) of the single compounds and mixtures was calculated by comparing the disease rating in the treatment with the one of the untreated control. The compounds were also assessed for their plant compatibility by recording symptoms like necrosis, chlorosis and stunting. The results have been described for the compound of formula (I-III) in Table G.

[2] = test system: Helicoverpa armigera; assay: Diet incorporation method against Helicoverpa armigera (Example A); conditions: single compound, 96 h
Method: The diet incorporation method was used, in which semi-synthetic diet was incorporated into the test solutions consisting either of the single compounds or respective compound combinations, when the temperature was approximately 50° C. in the bio-assay containers, then stirred thoroughly for proper mixing and allowed to cool for 30 min. The solidified diet was cut into equal pieces, and then each piece was transferred into one cell of a bio-assay tray. A single starved third instar larva was released into each of these cells of the bio-assay trays and the tray was covered with a lid. The bio-assay trays were kept under laboratory conditions at a temperature of 25° C. and relative humidity of 70%. Observations on dead, moribund and live larvae were recorded 96 h after the release of the larvae. Percent mortality was calculated by combining dead and moribund larvae and comparing the result to the one of the untreated control. The results are shown for the compound of formula (I-III) in Table A.

[3] = test system: Spodoptera litura; assay: Diet incorporation method against Spodoptera litura (Example B); conditions: single compound, 96 h
Method: The diet incorporation method was used, in which semi-synthetic diet was incorporated into the test solution consisting either of the single compound or respective compound combinations, when the temperature was approximately 50° C. in the bioassay containers, then stirred thoroughly for proper mixing and allowed to cool for 30 min. The solidified diet was cut into equal pieces, and then each piece was transferred into one cell of the bio-assay trays. A single starved third instar larva was released into each of these cells of the bio-assay trays and the tray was covered with a lid. The bio-assay trays were kept under laboratory conditions at a temperature of 25° C. and relative humidity of 70%. Observations on dead, moribund and live larvae were recorded 96 h after the release. Percent mortality was calculated by combining dead and moribund larvae and comparing the result with the one of the untreated control. The results are shown for the compound of formula (I-III) in Table B.

[4] = test system: Erysiphe cichoracearum; assay: Preventive glasshouse test against Erysiphe cichoracearum in cucumber (Example K); conditions: single compound
Method: The single compounds or the respective compound combinations were dissolved in 2% dimethyl sulfoxide/acetone and then mixed with water containing emulsifier to a calibrated spray volume of 50 mL. The test solutions were poured into spray bottles for further applications.
as §2, with “activity of compounds,” for “activity,”, “cucumber” for “tomato”, “conidial” for “spore”, “2×10^5 Erysiphe cichoracearum inoculum.” for “0.24×10^6 Alternaria solani inoculum and 2% Malt.”, “50-60%” for “90-95%”
A visual assessment of the performance of the compounds and the respective compound combinations was carried out by rating the disease severity (0-100% scale) on treated plants 3, 7, 10 and 15 days after application. Efficacy (% control) of the single compounds or compound combinations was calculated by comparing the disease rating in the treatment with the one of the untreated control. The compounds were also assessed for their plant compatibility by recording symptoms like necrosis, chlorosis and stunting. The results have been described for the compound of formula (I-III) in Table K.

[5] = test system: Pyricularia oryzae; conditions: single compound, 0.05 ppm, preventive, rice
[6] = test system: Septoria nodorum; assay: Preventive glasshouse test against Parastagonospora nodorum/Septoria nodorum/Stagnospora nodorum in wheat (Example J); conditions: single compound
Method: as §1
To test the preventive activity of compounds, healthy young wheat plants, raised in the greenhouse, were sprayed with the active compound preparation at the stated application rates inside the spray cabinets using hollow cone nozzles. One day after treatment, the plants were inoculated with a spore suspension containing 2.8×10^6 Stagnospora nodorum inoculum.
The inoculated plants were then kept in a greenhouse chamber at 22-25° C. temperature and 90-100% relative humidity for disease expression.
as §3, with “J.” for “G.”

[7] = test system: Phakopsora pachyrhizi; assay: Preventive glasshouse test against Phakopsora pachyrhizi in soybean (Example H); conditions: single compound
Method: The single compounds or the respective compound combinations were dissolved in 2% dimethyl sulfoxide/acetone and then mixed with water containing an emulsifier to a calibrated spray volume of 50 ml. The test solutions were poured into spray bottles for further applications.
as §2, with “activity of compounds,” for “activity,”, “Soybean” for “tomato”, “a” for “a spore”, “2×10^5 Phakopsora pachyrhizi conidia.” for “0.24×10^6 Alternaria solani inoculum and 2% Malt.”, “80-90%” for “90-95%”
A visual assessment of the performance of the single compounds and respective compound combinations was carried out by rating the disease severity (0-100% scale) on treated plants 3, 7, 10 and 15 days after application. Efficacy (% control) of the compounds was calculated by comparing the disease rating in the treatment with the one of the untreated control. The compounds were also assessed for their plant compatibility by recording symptoms like necrosis, chlorosis and stunting. The results have been described for the compound of formula (I-III) in Table H.

[8] = Spodoptera litura, 100 ppm, read-out: Observed Efficacy (%)
[9] = Helicoverpa armigera, 100 ppm, read-out: Observed Efficacy (%)
[10] = Spodoptera litura, 200 ppm, read-out: Observed Efficacy (%)

Compound	Observed Efficacy (%) ([1]; 0.05 ppm)	Observed Efficacy (%) ([1]; 0.1 ppm)	Observed Efficacy (%) ([2]; 100 ppm)	Observed Efficacy (%) ([3]; 100 ppm)	Observed Efficacy (%) ([3]; 500 ppm)	Observed Efficacy (%) ([4]; Conc. 0.05 ppm)	pest or weed control at 100 ppm [3, 8]	Observed Efficacy (%) ([3]; 200 ppm)	Observed Efficacy (%) ([4]; Conc. 10 ppm)	Observed Efficacy (%) ([7]; 10.0 ppm)	pest or weed control at 100 ppm [2, 9]	pest or weed control at 200 ppm [3, 10]	also measured
CO/C=C(/C(=O)OC)c1ccccc1Oc1cc(Oc2ccccc2C#N)ncn1 [Azoxystrobin]	26%	40%	0%	0%	0%	26%							Observed Efficacy (%) ([2]; 500 ppm): 0%; Observed Efficacy (%) ([4]; Conc. 0.1 ppm): 43%; Observed Efficacy (%) [5]: 30%
O=C(NCCc1ncc(C(F)(F)F)cc1Cl)c1ccccc1C(F)(F)F [Fluopyram]							0%						Observed Efficacy (%) ([6]; 10 ppm): 25%; Observed Efficacy (%) ([1]; 10 ppm): 67%; pest or weed control at 50 ppm ([2]; Helicoverpa armigera, 50 ppm, read-out: Observed Efficacy (%)): 0%
Cn1cc(C(=O)Nc2ccccc2-c2cc(F)c(F)c(F)c2)c(C(F)F)n1 [Fluxapyroxad]	14%	26%		0%	0%	29%		0%					Observed Efficacy (%) ([6]; 0.05 ppm): 12%; Observed Efficacy (%) ([6]; 0.1 ppm): 29%
N#Cc1ccccc1NC(=O)c1snc(Cl)c1Cl [Isotianil]			0%	0%				0%	51%	31%			Observed Efficacy (%) ([2]; 200 ppm): 25%; Observed Efficacy (%) ([4]; Conc. 50 ppm): 57%; Observed Efficacy (%) ([7]; 50.0 ppm): 41%
C=CCOC1=NS(=O)(=O)c2ccccc21 [Probenazole]							12.5%		22%	28%	0%	0%	Observed Efficacy (%) ([4]; Conc. 2 ppm): 15% and 16%; Observed Efficacy (%) ([7]; 2.0 ppm): 22%
COC(=O)N(OC)c1ccccc1COc1ccn(-c2ccc(Cl)cc2)n1 [Pyraclostrobin]	26%	26%				29%	12.5%				0%	12.5%	pest or weed control at 500 ppm ([3]; Spodoptera litura, 500 ppm, read-out: Observed Efficacy (%)): 12.5%; Observed Efficacy (%) ([7]; 0.05 ppm): 39%
